Measured values: patent US20110207773A1, “NOVEL PHENYL-QUINOLINE-CARBOXYLIC ACID PYRIDINE DERIVATIVES USEFUL AS MODULATORS OF NICOTINIC ACETYLCHOLINE RECEPTORS” (NEUROSEARCH A/S, priority 2008, published 2011)

Columns and labels:
[1] = biological target: T1, wild-type nAChR α7 receptors (Homo sapiens, UniProt P36544); assay: Positive modulation of nAChR α7 currents in Xenopus laevis oocytes, two-electrode voltage clamp; type: cell-based; settings: nAChR α7 expressed in Xenopus laevis oocytes, clamped at −60 mV, 100 μM acetylcholine; for Emax: (test-control)/control×100%, read-out: calculated EC50 Imax (maximal modulation of the control response); for EC50: test compound 0.01-31.6 μM, read-out: calculated EC50 (positive modulation of acetylcholine-induced current)
T1 construct: expressed in transfected cells; host or cells: Xenopus laevis oocytes
T1 sequence (P36544 23-502): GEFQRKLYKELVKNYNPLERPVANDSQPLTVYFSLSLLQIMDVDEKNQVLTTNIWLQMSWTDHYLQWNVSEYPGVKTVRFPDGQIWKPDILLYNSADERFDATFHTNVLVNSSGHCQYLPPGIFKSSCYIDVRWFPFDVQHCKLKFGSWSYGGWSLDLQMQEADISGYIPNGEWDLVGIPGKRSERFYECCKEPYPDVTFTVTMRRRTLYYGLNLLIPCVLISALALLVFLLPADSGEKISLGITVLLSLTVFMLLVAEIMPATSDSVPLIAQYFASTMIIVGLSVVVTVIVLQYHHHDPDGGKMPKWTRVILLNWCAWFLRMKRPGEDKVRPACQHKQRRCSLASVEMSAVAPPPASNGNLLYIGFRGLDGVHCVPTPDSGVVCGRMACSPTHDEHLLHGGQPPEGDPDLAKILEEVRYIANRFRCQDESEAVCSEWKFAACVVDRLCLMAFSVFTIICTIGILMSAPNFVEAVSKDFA
Protocol: In this example the positive modulation of wild-type nAChR α7 receptors by Compounds 4 and 5, representative of the invention, was determined using nAChR α7 receptors heterologously expressed in Xenopus laevis oocytes.
The electrical current through the nAChR α7 channel was measured using conventional two-electrode voltage clamp and nAChR α7 currents were activated by applying pulses of agonist-containing solution onto the nAChR α7 expressing oocyte.
In brief, the oocytes were placed in a recording chambers and continuously super-fused with an Oocyte Ringer (OR) solution containing 90 mM NaCl, 2.5 mM KCl, 2.5 mM CaCl2, 1 mM MgCl2 and 5 mM HEPES (pH adjusted to 7.4). The oocytes were clamped at −60 mV and currents were induced by applying 20 s pulses of 100 μM acetylcholine dissolved in OR. The intervals between the acetylcholine applications were 5 minutes, during which the oocytes were washed with OR. The first three applications were control applications to insure a constant response level of 100 μM acetylcholine. For the subsequent test applications, increasing concentrations (0.01-31.6 μM) of the test compound were applied 30 s before and during the acetylcholine (100 μM) application, which caused a robust increase in the acetylcholine-induced current amplitude.
The positive modulation in the presence of Compound 4 was calculated as (test-control)/control×100% and the concentration response curve for this positive modulation was fitted to the sigmoidal logistic equation: I=Imax/(1+(EC50/[compound])^n), where Imax represents the maximal modulation of the control response, EC50 is the concentration causing a half maximal response, and n is the slope coefficient.

| Emax [1] | EC50 [1] | melting point | Structure (SMILES) |
| --- | --- | --- | --- |
| 197% | 1200 nM |  | COc1ccc(-c2cc(C(=O)Nc3cccc(F)n3)c3ccccc3n2)cc1OC [Compound 5, 2-(3,4-Dimethoxy-phenyl)-quinoline-4-carboxylic acid (6-fluoro-pyridin-2-yl)-amide] |
|  |  | 182.4 to 183.7 °C | Cc1ccc(NC(=O)c2cc(-c3ccc(Br)cc3)nc3ccccc23)nc1 [Compound 7, 2-(4-Bromo-phenyl)-quinoline-4-carboxylic acid (5-methyl-pyridin-2-yl)-amide] |
| 283% | 3700 nM |  | COc1ccc(-c2cc(C(=O)Nc3cccc(F)n3)c3ccccc3n2)cc1 [Compound 4, 2-(4-Methoxy-phenyl)-quinoline-4-carboxylic acid (6-fluoro-pyridin-2-yl)-amide] |
|  |  | 209.9 to 210.6 °C | O=C(Nc1cccc(F)n1)c1cc(-c2ccc3c(c2)OCCO3)nc2ccccc12 [Compound 13, 2-(2,3-Dihydro-benzo[1,4]dioxin-6-yl)-quinoline-4-carboxylic acid (6-fluoro-pyridin-2-yl)-amide] |
|  |  | 201.8 to 202.8 °C | COc1ccc(-c2cc(C(=O)Nc3cccc(F)n3)c3cccc(F)c3n2)cc1 [Compound 8, 8-Fluoro-2-(4-methoxy-phenyl)-quinoline-4-carboxylic acid (6-fluoro-pyridin-2-yl)-amide] |
|  |  | 254 to 256 °C | O=C(Nc1cccc(F)n1)c1cc(-c2ccc(O)cc2)nc2c(F)cccc12 [Compound 9, 8-Fluoro-2-(4-hydroxy-phenyl)-quinoline-4-carboxylic acid (6-fluoro-pyridin-2-yl)-amide] |
|  |  | 161.2 to 162.9 °C | COc1ccc(-c2cc(C(=O)Nc3cccc(F)n3)c3cc(F)ccc3n2)cc1 [Compound 10, 6-Fluoro-2-(4-methoxy-phenyl)-quinoline-4-carboxylic acid (6-fluoro-pyridin-2-yl)-amide] |
